Measured values: patent publication US20260337209A1, “BORON-CAPPED CLATHROCHELATE AND MACROCYCLIC LIGANDS AND METAL COMPLEXES THEREOF” (UVic Industry Partnerships Inc., priority 2022, published 2026)
Counter-ions that a name gives are not always drawn.

Legend:
Assay type in all cases: physicochemical
solubility in solvents = details: for solubility in acetone: solvent acetone
[1] = TGA (thermogravimetric analysis); details: [4a]·i-PrOH·2 H2O
Protocol: Exemplary embodiments of the technology are illustrated by the following non-limiting Examples, in which the reactions were carried out under air or nitrogen as indicated using commercially available reagents as received unless otherwise specified. NMR spectra were recorded on Bruker AVANCE 300, 360 or 500 MHz instruments relative to residual solvent resonances (^1H, ^13C), an external reference (BF3·OEt2 for ^11B) or by indirect detection (^15N by HMBC, in ppm relative to NH3). Melting points were determined using an Omega Engineering Model 199 instrument and are uncorrected. Mass spectra were recorded on a Q-TOF II instrument by MicroMass using electrospray ionization. TGA were recorded between room temperature and 600° C. Elemental analysis for C, H and N were obtained by Canadian Microanalytical Services, Delta, B.C., Canada or Guelph Chemical Laboratories Ltd., Guelph, ON, Canada.

[2] = CV (cyclic voltammetry) in dry CH3CN; details: 0.1 M NBu^n4^+PF6^−
Protocol: Mauve powder. Yield: 92% (based on formula). Mp. dec. 315° C. ^1H NMR (300 MHz, dmso-d6, 298 K): δ 80.0 (1H relative int., v1/2=450 Hz), 77.9 (1H, v1/2=50 Hz), 53.1 (2H, v1/2=480 Hz), 46.8 (2H, v1/2=450 Hz), 39.4 (2H and 1H overlap, broad and sharp resonances), 21.8 and 19.5 (2H each, broad and overlapping), 13.0 (1H, v1/2=400 Hz), −2.0 (1H, v1/2=350 Hz), −4.2 (1H, v1/2=350 Hz), […] (2H, v1/2=450 Hz), −8.6 (1H, v1/2=40 Hz), −28.7 (1H, v1/2=50 Hz), −52.7 (1H, v1/2=450 Hz), −72.8 (v1/2=500 Hz). NMR (360 MHz, dmso-d6, 373 K): δ 18.49 (6H, br s, 4′- or 5′-pzH, v1/2=85 Hz), 17.00 (6H, br s, 3,5-pyH, v1/2=65 Hz), 7.88 (6H, br s, 4′- or 5′-pzH, v1/2=80 Hz), 4.18 (3H, br s, 4-pyH, v1/2=30 Hz), −4.25 (2H, br s, BH, v1/2=320 Hz). […] Fc/Fc^+); Co(NO3)2 under the same conditions: E1/2 (ox)=+1.8 V (vs. Fc/Fc^+). μeff=4.7 BM (Evans' method). A mononuclear 1:1 complex [9a]of cage [4a] with Co^2+ has been characterized by X-ray crystallography. A Co(OH2)3^2+ unit is bound up in the tris(pyrazolyl) cap.
A blue-green powder was obtained from reaction of Cu(NO3)2(H2O)2.5 with [4a] in a 1:1 ratio. The ^1H NMR spectrum of this product is very similar to that of [11c′], obtained as one product in the reaction of Cu(O3SCF3)2 with [4a] in 3:1 ratio. […]

Compound: c1cc2nc(c1)-c1ccn(n1)B1n3ccc(n3)-c3cccc(n3)-c3ccn(n3)B(n3ccc-2n3)n2ccc(n2)-c2cccc(n2)-c2ccn1n2 [4a, Tris(2,6-pyrazolylpyridino)diborate dipotassium salt]
- solubility in halocarbons (solubility in solvents; CH2Cl2 and CHCl3): slightly soluble
- solubility in alcohols (solubility in solvents; MeOH, EtOH, i-PrOH): slightly soluble
- solubility in pure water (solubility in solvents; pure water): very limited solubility
- solubility in DMSO (solubility in solvents; solvent DMSO): very soluble
- solubility in THF (solubility in solvents; solvent THF): moderately soluble
- solubility in acetone (solubility in solvents): very soluble
- solubility in acidic water (solubility in solvents; solvent acidic water): moderately soluble
- solubility in ethyl acetate (solubility in solvents; solvent ethyl acetate): moderately soluble
- onset of decomposition (TGA) [1]: > 450 °C

Compound: c1cc2cc(c1)-c1ncn(n1)B1n3cnc(n3)-c3cccc(c3)-c3ncn(n3)B(n3cnc-2n3)n2cnc(n2)-c2cccc(c2)-c2ncn1n2 [7a, tris(2,6-di(1′,2′,4′-triazol-3′ yl)benzene)diborate dipotassium salt]
- solubility in dmso-d6 (solubility in solvents; dmso-d6, mild heating): dissolved with mild heating in dmso-d6
- solubility in acetone (solubility in solvents): would not dissolve in acetone

Compound: CC1(C)c2ccn(n2)Bn2ccc(n2)C(C)(C)c2ccn(n2)Bn2ccc1n2 [8′a, Bis(2,2-dipyrazolylpropane)diborate dipotassium salt]
- solubility in diethyl ether (solubility in solvents; diethyl ether, relative to the corresponding cage [7′a]): notably less soluble

Compound: O=[N+]([O-])[O-].O=[N+]([O-])[O-].[Co+2] [Co(NO3)2]
- E1/2 (ox) ([2]; 250 mV s^−1): +1.8 V (vs. Fc/Fc^+)

Compound: O=[N+]([O-])[O-].O=[N+]([O-])[O-].[Cu+2] [Cu(NO3)2]
- E1/2 (red) [2]: −0.8 V (vs. Fc/Fc^+)

Compound: Tris(2,6-pyrazolyl-4-(4′-methoxybenzylthiolato)pyridino)diborate dipotassium salt [4t]
- solubility in benzene (solubility in solvents; solvent benzene): somewhat soluble
